In patent US20250134907A1, “FUSED DIAZEPINES AS AGONISTS OF THE INSULIN-LIKE 3 (INSL3) PEPTIDE RECEPTOR RXFP2 AND METHODS OF USE THEREOF” (The United States of America,as represented by the …, priority 2022, published 2025):

Legend:
mouse RXFP2 = biological target: T1, mouse RXFP2 (Mus musculus, UniProt Q91ZZ5); test: Luciferase cAMP assay in HEK-CRE-Luc cells transiently transfected with mouse RXFP2; type: cell-based; conditions: 10 μM-[…], compared with human RXFP2 response
T1 construct: expressed in transfected cells; host or cells: HEK-CRE-Luc (transient, Lipofectamine2000)
Description: It was of interest if the RXFP2 agonists of formula (I) activate the mouse RXFP2 receptor. HEK-CRE-Luc cells transiently transfected with mouse RXFP2 were used to test agonist activity by measuring induction of cAMP. For this assay, cells were seeded in 6-well flat-bottom clear plates at 0.6 million cells/well in 2 mL/well of growth medium (DMEM, 10% FBS, 1× Pen/Strep) and allowed to attach overnight at 37° C., 5% CO2. The next morning, cells were transfected with 2 μg of plasmid (human or mouse RXFP2) and 6 μL of Lipofectamine2000 (Invitrogen, Waltham, MA) in a total volume of 200 μl/well OPTI-MEM™ I (Thermo Fisher, Waltham, MA) reduced serum medium and incubated an additional 24 hours. The transfected cells were then harvested and seeded in 96-well flat-bottom opaque plates at 30,000 cells/well in 60 μL/well of serum-free DMEM medium and incubated overnight to attach. The next morning, cells were treated with 1 μL/well of compound (10 μM-1.2 nM), 2 μM forskolin, or DMSO vehicle, and with 4 μL of positive control INSL3 (100-0.01 nM) (Phoenix Pharmaceuticals, Burlingame, CA) or vehicle serum-free DMEM. […] Plates were incubated for 40 minutes at room temperature protected from light, and the signal was read on a CLARIOstar plate reader (BMG Labtech, Germany). […]

[1] = tested on: primary human calvarial osteoblasts (HCO); test: CellTiter-Glo cytotoxicity assay in HCO cells; type: cell-based; conditions: 24 h
Description: Cytotoxicity induced by the compounds in HEK293T cells and primary human calvarial osteoblasts (HCO) (ScienCell Research Laboratories, San Diego, CA) were tested using the […]-GLO™ Luminescent Cell Viability Assay (Promega, Madison, WI). This is a luminescence-based assay that determines viable cells by measuring cellular adenosine triphosphate (ATP) production. The luciferase enzyme requires ATP to catalyze the conversion of beetle luciferin to oxyluciferin and light. Thus, luciferase activity is proportional to ATP accumulation in the cells. For this assay, 96-well flat-bottom opaque plates seeded with HEK293T cells at 5,000 cells/well and HCO cells at 3,000 cells/well in 100 μL/well of growth medium (DMEM, 10% FBS, 1× Penicillin/Streptomycin). After incubating overnight at 37° C., 5% CO2 to allow attachment, cells were treated with 1 μL/well of compound (25-0.1 μM) or DMSO vehicle and incubated an additional 24 hours. Then cells were equilibrated for 30 minutes at room temperature and 100 μL/well of […]-GLO™ Reagent was added. Plates were placed on an orbital shaker for 2 minutes and incubated at room temperature for 10 minutes to stabilize the luminescent signal, which was read immediately after on a CLARIOstar plate reader (BMG Labtech, Germany). […] The HEK293T results represent the means±SEM of 3 technical replicates. The HCO results represent the means±SEM of 3 independent experiments.

[2] = tested on: chimera RXFP1-2 (extracellular domain of RXFP1, transmembrane domain of RXFP2); test: HTRF cAMP assay in HEK293T cells transiently transfected with chimera RXFP1-2; type: cell-based, human
Source text: To further investigate the involvement of the RXFP2 extracellular and transmembrane domains in agonist activation of the receptor, two complementary chimeras were created using the RXFP1 receptor, which is not activated by the agonists of formula (I), to transiently transfect HEK293T cells and measured changes in cAMP induction using the HTRF assay.
Chimeric receptors were generated by IN-FUSION™ (Takara Bio USA, Inc., San Jose, CA) mutagenesis using full-length human RXFP1 and RXFP2 receptor constructs. Polymerase chain reaction (PCR) was performed using PfuTurbo high-fidelity DNA polymerase (Agilent Technologies, Santa Clara, CA) and overlapping primers with at least 15 bp sequence homology within the fusion site. PCR products were digested with Dpnl restricton enzyme at 37° C. overnight, run on a 0.8% agarose gel and purified using the GENEJET™ Gel extraction kit (Thermo Scientific, Waltham, MA). The purified DNA fragments were then ligated into the BamHI and XhoI pre-digested pcDNA3.1™/Zeo(+) AmpR mammalian expression vector using the In-Fusion HD enzyme premix (Clontech, Mountain View, CA) at 50° C. for 15 minutes, and the resulting product was used to transform Stellar competent cells (Takara Bio USA, Inc., San Jose, CA). The clones were fully sequenced to confirm the correct fusion of both receptor fragments. Chimera RXFP2-1 contained the extracellular domain of RXFP2 and the transmembrane domain of RXFP1. Accordingly, chimera RXFP1-2 contained the extracellular domain of RXFP1 and the transmembrane domain of RXFP2.
HEK293T cells were seeded in 6-well flat-bottom clear plates at 0.5 million cells/well in 2 mL/well of growth medium (DMEM, 10% FBS, 1× Pen/Strep) and allowed to attach overnight at 37° C. and 5% CO2. The next morning, cells were transfected with 2 μg of plasmid (chimeric receptors, WT RXFP2, or WT RXFP1) and 6 μl of Lipofectamine2000 (Invitrogen, Waltham, MA) in a total volume of 200 μl/well OPTI-MEM™ I (Thermo Fisher, Waltham, MA) reduced serum medium and allowed to incubate an additional 24 hours. The next day, transfected cells were seeded in 96-well flat-bottom opaque plates at 30,000 cells/well in 60 μL/well of serum-free DMEM medium and allowed to attach overnight at 37° C. at 5% CO2. The next morning, cells were treated with 1 μL/well of compound (25 μM-0.25 nM), 2 μM forskolin, or DMSO vehicle. Cells were also treated with 4 μL of positive control INSL3 (100-0.01 nM), Relaxin2 (100-10 nM), or vehicle (serum-free DMEM+IBMX). Plates were incubated for 1 hour at 37° C. and 5% CO2, after which kit cAMP-d2 and anti-cAMP antibody were added as previously described. Cells were incubated for 1 hour at room temperature, and then the signal was read on a CLARIOstar plate reader (BMG Labtech, Germany).

[3] = lower concentrations than 25 μM

T1 sequence (Q91ZZ5 whole entry): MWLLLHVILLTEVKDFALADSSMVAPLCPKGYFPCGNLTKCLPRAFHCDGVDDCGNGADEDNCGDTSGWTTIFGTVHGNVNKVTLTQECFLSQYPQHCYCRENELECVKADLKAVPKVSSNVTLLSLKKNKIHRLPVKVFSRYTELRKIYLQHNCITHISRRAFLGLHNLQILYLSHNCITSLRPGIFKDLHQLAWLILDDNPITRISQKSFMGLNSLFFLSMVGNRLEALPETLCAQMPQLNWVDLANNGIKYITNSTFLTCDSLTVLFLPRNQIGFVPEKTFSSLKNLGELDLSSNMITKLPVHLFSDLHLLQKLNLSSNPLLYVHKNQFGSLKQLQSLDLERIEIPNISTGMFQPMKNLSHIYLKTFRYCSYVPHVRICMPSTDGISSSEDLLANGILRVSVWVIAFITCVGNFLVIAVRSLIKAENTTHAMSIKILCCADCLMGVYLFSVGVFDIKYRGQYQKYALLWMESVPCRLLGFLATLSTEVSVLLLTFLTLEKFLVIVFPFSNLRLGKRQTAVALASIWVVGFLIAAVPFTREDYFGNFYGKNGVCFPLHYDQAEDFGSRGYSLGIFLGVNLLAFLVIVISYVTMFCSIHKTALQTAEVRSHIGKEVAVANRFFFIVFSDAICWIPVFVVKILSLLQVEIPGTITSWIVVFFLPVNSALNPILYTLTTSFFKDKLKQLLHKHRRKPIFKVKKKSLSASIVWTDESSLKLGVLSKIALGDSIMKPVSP

SMILES | mouse RXFP2 activation (cAMP, luciferase) (mouse RXFP2) | cytotoxicity ([1]; 25 μM) | cytotoxicity [1, 3] | cAMP response of chimera RXFP1-2 [2]
O=C1Nc2ccc(-c3cccc(C(F)(F)F)c3)cc2C(=O)N2CCN(C(=O)COc3ccc(OC(F)(F)F)cc3Br)C[C@@H]12 [Example 123, (S)-2-(2-(2-bromo-4-(trifluoromethoxy)phenoxy)acetyl)-8-(3-(trifluoromethyl)phenyl)-1,3,4,12a-tetrahydrobenzo[e]pyrazino[1,2-a][1,4]diazepine-6,12 (2H, 11H)-dione] | activate the mouse RXFP2 receptor at levels comparable to human RXFP2 activation |  |  | 
O=C1Nc2ccc(-c3cc(C(F)(F)F)cc(C(F)(F)F)c3)cc2C(=O)N2CCN(C(=O)COc3ccc(OC(F)(F)F)cc3Br)C[C@@H]12 [Example 158, (S)-8-(3,5-Bis(trifluoromethyl)phenyl)-2-(2-(2-bromo-4-(trifluoromethoxy)phenoxy)acetyl)-1,3,4,12a-tetrahydrobenzo[e]pyrazino[1,2-a][1,4]diazepine-6,12 (2H, 11H)-dione] | activate the mouse RXFP2 receptor at levels comparable to human RXFP2 activation | minimal toxicity | not toxic | 
O=C1Nc2ccc(-c3cc(C(F)(F)F)cc(C(F)(F)F)c3)cc2C(=O)N2CCN(C(=O)COc3ccc(OC(F)(F)F)cc3I)C[C@@H]12 [Example 187, (S)-8-(3,5-bis(trifluoromethyl)phenyl)-2-(2-(2-iodo-4-(trifluoromethoxy)phenoxy)acetyl)-1,3,4,12a-tetrahydrobenzo[e]pyrazino[1,2-a][1,4]diazepine-6,12 (2H, 11H)-dione] |  | minimal toxicity | not toxic | levels comparable to WT RXFP2
